{"source": "patent US20220110936A1", "about": "“PHARMACEUTICAL COMPOSITION FOR TREATMENT OF NEURODEGENERATIVE DISEASES OR DISEASES CAUSED BY ABNORMALITY OF RNA BINDING PROTEIN AND APPLICATIONS THEREOF” (Shanghai Institute of Organic Chemistry, Chinese Academy of …, priority 2019, published 2022)", "key": {"ALS patients": {"system": "ALS patients", "conditions": "cited from earlier work"}, "[1]": {"system": "stress granules containing hnRNP A1 protein in HeLa cells", "assay": "Assembly of stress granules containing hnRNP A1 under sodium arsenite (immunofluorescence)", "assay_type": "cell-based, human", "conditions": "20 μM, 3 h pretreatment, 100 μM sodium arsenite 0, 10, 30 min, vs DMSO", "method": "HeLa cells were cultivated in Dulbecco's modified Eagle's medium (DMEM) (sigma) containing 10% fetal bovine serum (FBS) (Biowest). Cells were purchased from American Type Culture Collection (ATCC) and grown at 37° C., 5% carbon dioxide. In the present invention, unless otherwise specified, cell were seeded 12-18 hours in advance in 24-well plates (Corning) containing glass slides (Thermo) at a density of 2×10^5/ml experiments if the cells were used for subsequent immunofluorescence assays, cells were seeded 12-18 hours in advance in 12-well or 6-well plates at a density of 5×10^5/ml if the cells were used for subsequent WB detection assays.\nPlasmid transfection: The plasmid pCAG-hnRNP A1-Flag constructed in 1.1.1 was transfected with PolyJet™ reagent (SignaGen) (the amount of transfection plasmid is 0.8 μg/ml, and the ratio of transfection reagent to transfection plasmid is 1:2 (mass volume percentage, for example, […])). Cells were seeded 12-18 hours in advance and transfection was started when the confluence of cell reached about 70%. About 6 hours after transfection, culture medium were changed to ensure growth status of cells. After the exogenous protein was expressed for 24-48 h, the next step of the experiment can be carried out. […]"}, "[2]": {"system": "motor neuron-like NSC-34 cells overexpressing hnRNP A1", "assay": "Cell viability (CCK-8) of NSC-34 cells overexpressing hnRNP A1", "assay_type": "cell-based", "method": "(§1) 293T cells were cultured in DMEM (sigma) containing 10% FBS (Biowest). NSC-34 cells were cultured with RPMI 1640 medium (Gibco, 11875-093) containing 10% FBS. Cells were grown at 37° C. with 5% carbon dioxide. Cells were both purchased from ATCC.\n(§2) Lentiviral packaging plasmids and the corresponding exogenous hnRNP A1 or TDP-43 expression plasmids were transfected simultaneously in 293T cells with PolyJet™ transfection reagent. After 48 hours of transfection, the cell culture was collected by filtration with a 0.45 μm syringe filter (Millipore) and concentrated with Lenti-X™ Concentrator (Clontech), and the concentrated product was used for subsequent infection of NSC-34 cells.\n(§3) NSC-34 cells were seeded one day in advance in 96-well plates (Corning) and the corresponding lentivirus was added for transfection. Cell viability was determined 48-72 h after transfection using Cell Counting Kit-8 (CCK-8) (Dojindo) kit. In brief, 10 μL of CCK-8 solution was added to each well. After incubation at 37° C. for 2.5 h, the absorbance light at 450 nm of the solution was detected with a Synergy2 microplate reader (BioTek Instruments) and cell viability values were calculated according to the instructions.\n(§4) The siRNA transfection procedure was the same as that in Example 1, and the transfection time was 48-60 h. The corresponding siRNA sequences are as follows."}, "[3]": {"system": "stress granules containing TDP-43 protein in HeLa cells", "assay": "Assembly of stress granules containing TDP-43 under sodium arsenite (immunofluorescence)", "assay_type": "cell-based, human", "conditions": "20 μM, 3 h pretreatment, vs DMSO", "method": "Drug treatment: in order to inhibit the level of intracellular PARylation, 20 μM PARP inhibitor Olaparib (Selleck) was added 3 hours before harvesting the plasmid-transfected samples mentioned above, and the control group was treated with an equal volume of DMSO.\nIn order to induce the production of stress granules, the HeLa cells collected in 1.1.3 were treated with 100 μM sodium arsenite (Sigma) for 0, 10 and 30 minutes, respectively.\nCells harvested after treatment in 1.1.4 above were washed once with PBS, fixed with 4% paraformaldehyde (Sangon Biotech) for 15 min, permeabilized with 0.5% Triton-X100 (Sigma) solution for 10 min, and finally incubated with PBST solution containing 3% goat serum (Sigma) (0.1% Tween 20 (Sigma) in PBS) for 1 h at room temperature and incubated overnight at 4° C. with antibodies (Rabbit anti-TIAR (CST), Mouse anti-Flag (Sigma)). The cells were washed with PBST three times at room temperature and incubated for 1 hour at room temperature. After washing three times with PBST at room temperature, fluorescent secondary antibodies (goat anti-mouse-Alexa Fluor 488 (Thermo), goat anti-rabbit-Alexa Fluor 568 (Thermo)) were added for labeling, and then Vectashield Antifade Mounting Medium with DAPI (Vector Laboratories) was used to seal the slices. The signals were observed and acquired under a 100× oil microscope on a Leica TCS SP8 confocal microscope. […]"}, "[4]": {"system": "motor neuron-like NSC-34 cells overexpressing TDP-43", "assay": "Cell viability (CCK-8) of NSC-34 cells overexpressing TDP-43", "assay_type": "cell-based", "conditions": "5 μM", "method": "as §1, §2, §3, §4"}, "PARP": {"system": "PARP", "assay": "Western blot of intracellular PARylation level in HeLa cells", "assay_type": "cell-based, human", "conditions": "20 μM, 3 h, vs DMSO", "protocol": "Drug treatment: in order to inhibit the level of intracellular PARylation, 20 μM PARP inhibitor Olaparib (Selleck) was added 3 hours before harvesting the plasmid-transfected samples mentioned above, and the control group was treated with an equal volume of DMSO. […]\nImmunoblotting assay: the above boiled proteins were separated by 10% Bis-Tris SDS-PAGE (Invitrogen), then transferred to 0.22 μm PVDF membrane (Millipore), sealed with 5% skimmed milk powder, and added with corresponding antibodies (anti-pan-ADP-ribose binding reagent (Millipore), mouse anti-Tubulin (MLB), rabbit anti-PRAG (CST), mouse anti-GAPDH (Proteintech)) for immunoblotting assay. Membranes incubated with primary antibodies were then incubated with the corresponding secondary antibodies coupled with HRP (goat anti-mouse (Sigma), goat anti-rabbit (sigma)), and corresponding protein signals were detected in Amersham Imager 600 (GE Healthcare) using ECL luminescent solution (Tanon)."}, "hnRNP A1": {"target": "T1, hnRNP A1 (Homo sapiens, UniProt P09651)", "T1 construct": "host or cells: E. coli BL21 (DE3) pLysS", "T1 sequence (P09651 1-320 isoform P09651-2)": "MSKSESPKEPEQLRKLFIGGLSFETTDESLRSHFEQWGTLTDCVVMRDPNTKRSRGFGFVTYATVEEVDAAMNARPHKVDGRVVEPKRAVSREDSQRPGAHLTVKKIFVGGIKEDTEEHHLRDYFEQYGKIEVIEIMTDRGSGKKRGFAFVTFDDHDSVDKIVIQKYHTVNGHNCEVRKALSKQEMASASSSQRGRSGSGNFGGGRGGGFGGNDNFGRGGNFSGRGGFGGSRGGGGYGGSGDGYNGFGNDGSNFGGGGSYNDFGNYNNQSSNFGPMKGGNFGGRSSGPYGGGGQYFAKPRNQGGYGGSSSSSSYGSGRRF", "assay": "In vitro liquid-liquid phase separation (LLPS) of hnRNP A1", "conditions": "added under critical conditions", "method": "pET9d-hnRNP A1 (Addgene) was used for hnRNP A1 protein expression in E. coli BL21 (DE3) pLysS (TranGeneBiotech). After 0.4 mM IPTG (SangonBiotech) induction at 25° C. for 15 h, the obtained bacteria were collected by centrifugation, and lysed by lysis buffer (50 mM Tris-HCl at pH 7.5, 2 mM DTT, 1 mM PMSF, 5% glycerin, and 0.1 mg/mL RNase A). Supernatant was collected by centrifugating the lysate at a high speed at 4° C. and then transferred to a 5 ml SP column in an AKTA (GE Healthcare) machine. The protein binded on the column was eluted with a mixture (9:1) of buffer A (50 mM Tris-HCl pH 7.5, 2 mM DTT and 5% glycerin) and buffer B (buffer A with 1 M NaCl). The eluted protein was purified by Superdex 75 16/600 column (GE Healthcare). The purified protein was dissolved in stock buffer (50 mM Tris-HCl pH 7.5, 500 mM NaCl and 2 mM DTT) for subsequent experiments.\nThe purified hnRNP A1 protein was mixed with a certain concentration of PAR (Trevigen) under a certain salt concentration. The reaction system was 50 mM Tris-HCl, pH 7.5, 10% (w/v) […] (Sigma) and 2 mM DTT. After the mixture was incubated at room temperature for 3 minutes, 5 μl was dropped on a glass slide for observation with an SP8 confocal microscope (Leica)."}, "hnRNP A1 and TDP-43": {"system": "hnRNP A1 and TDP-43", "assay": "In vitro co-phase separation of hnRNP A1 and TDP-43 fragments", "method": "TDP-43^1-274: The expression plasmid pET-28a-TDP-43^1-274-6×His was expressed in BL21 E. coli (DE3) (TranGeneBiotech) after induction by 50 uM IPTG (SangonBiotech) at 19° C. for 16 h. The resulting bacteria were collected by centrifugation, and lysed by lysis buffer (50 mM Tris-HCl, 500 mM NaCl, pH 8.0, 10 mM imidazole, 4 mM β-mercaptoethanol, 1 mM PMSF, and 0.1 mg/mL RNase A). Supernatant was collected by centrifugating the lysate at low temperature and then purified and enriched by Ni column (GE Healthcare). The protein enriched by Ni columns was eluted with eluent (50 mM Tris-HCl, 500 mM NaCl, pH 8.0, 250 mM imidazole and 4 mM β-mercaptoethanol), and then purified with Superdex 200 […] column (GE Healthcare). The purified protein was finally dissolved in a storage buffer (50 mM Tris-HCl pH 7.5, 300 mM NaCl and 2 mM DTT) for subsequent experiments.\nTDP-43^274-414: This protein was expressed in BL21 E. coli (DE3) (TranGeneBiotech) by adding 50 uM IPTG (SangonBiotech) at 37° C. for inducing the expression of the protein in inclusion bodies. Collected bacteria were lysed with denaturing lysis buffer (50 mM Tris-HCl, pH 8.0 and 6 M guanidine hydrochloride). The lysis product was centrifuged at high speed for 1 h at 4° C. and the supernatant was collected for purification by Ni column. The proteins were eluted with denaturing elution solution (50 mM Tris-HCl at pH 8.0, 6 M guanidine hydrochloride and 50 mM imidazole) and then further purified by HPLC (Agilent) and the resulting product was lyophilized using a freeze-dryer (Thermo Fisher) and then prepared for use.\nThe purified TDP-43^1-274 and hnRNP A1 proteins (obtained in Example 6) were diluted separately into desalting reaction solution (50 mM Tris-HCl, pH 7.5, 500 mM NaCl and 4 mM Tris(2-Carboxyethyl) Phosphine (TCEP) (Invitrogen)), and DTT was removed using a desalting column (GE Healthcare). After desalting, TDP-43^1-274 and hnRNP A1 proteins were incubated for 2 h at room temperature with 5 times the volume of AlexaFluor-555 C2-malemide (Invitrogen) or AlexaFluor-647 C2-malemide (Invitrogen), respectively. […]"}}, "data": [{"compound": "CC1=NN(c2ccccc2)C(=O)C1", "note": "[Edaravone]", "values": [{"measurement": "physical impairment in ALS patients", "setting": "ALS patients; phase III clinical trials", "result": "alleviate some degree of physical impairment"}]}, {"compound": "O=C(c1cc(Cc2n[nH]c(=O)c3ccccc23)ccc1F)N1CCN(C(=O)C2CC2)CC1", "note": "[Olaparib]", "values": [{"measurement": "formation of intracellular stress granules and stress granules containing hnRNP A1", "setting": "[1]", "result": "delayed"}, {"measurement": "hnRNP A1-induced neurocytotoxicity", "setting": "[2]", "result": "significant inhibitory effect"}, {"measurement": "formation of intracellular stress granules and stress granules containing TDP-43", "setting": "[3]", "result": "delayed"}, {"measurement": "cytotoxicity induced by overexpression of TDP-43", "setting": "[4]", "result": "can reduce the cytotoxicity"}, {"measurement": "intracellular level of PARylation (WB)", "setting": "PARP", "result": "significantly reduce"}]}, {"compound": "Nc1nc2ccc(OC(F)(F)F)cc2s1", "note": "[Riluzole]", "values": [{"measurement": "prolongation of the patient's life", "setting": "ALS patients; ALS patients", "result": "3-6 months"}, {"measurement": "side effects", "setting": "ALS patients; ALS patients", "result": "nausea, dizziness and even pneumonia"}]}, {"compound": "heparin", "values": [{"measurement": "LLPS of hnRNP A1", "setting": "hnRNP A1", "result": "did not promote"}]}, {"compound": "poly(ADP-ribose) [PAR]", "values": [{"measurement": "LLPS of hnRNP A1", "setting": "hnRNP A1", "result": "promoted"}, {"measurement": "co-phase separation of hnRNP A1 and TDP-43 1-274", "setting": "hnRNP A1 and TDP-43", "result": "can promote"}, {"measurement": "co-phase separation of hnRNP A1 and TDP-43 274-414", "setting": "hnRNP A1 and TDP-43; high concentration", "result": "cannot promote"}, {"measurement": "phase separation of hnRNP A1 or TDP-43 1-274 alone", "setting": "hnRNP A1 and TDP-43; high concentration", "result": "cannot promote"}]}]}
